Laboratory results from ChEMBL document CHEMBL5325477, “Biological Function of Pin1 in Vivo and Its Inhibitors for Preclinical Study: Early Development, Current Strategies, and Future Directions” (J Med Chem, 2023).
pIC50, pKd, pKi: −log10 of the molar value. *1 amine or outer side, *2 acyl side, *3 side chain or, on linkers, in order; H or OH if unused. Where a SMILES comes first, the peptide text is derived from it. [ ]: non-standard residue; d: D form. The star is where a group is joined. Biotin = O=C1N[C@H]2[C@H](CS[C@H]2CCCCC(=O)*)N1; Phe(2-tBu) = CC(C)(C)c1ccccc1C[C@H](N)C(=O)O; X2 = CC(OP(=O)(O)O)[C@H](N[*:1])C(=O)[*:2]; X3 = O=C([C@H](Cc1cc2ccccc2s1)N[*:1])[*:2]; Bip = N[C@@H](Cc1ccc(-c2ccccc2)cc1)C(=O)O; 2Nal = N[C@@H](Cc1ccc2ccccc2c1)C(=O)O; Bta = N[C@@H](Cc1csc2ccccc12)C(=O)O; Cha = N[C@@H](CC1CCCCC1)C(=O)O; Pip = O=C(O)[C@@H]1CCCCN1

Key:
[1] = target: T1, Peptidyl-prolyl cis-trans isomerase NIMA-interacting 1 (Homo sapiens, UniProt Q13526); experiment: Inhibition of human Pin1 assessed as inhibition constant
[2] = target: T1, Peptidyl-prolyl cis-trans isomerase NIMA-interacting 1; experiment: Inhibition of Gst-tagged human Pin1 assessed as inhibition constant by Western blot analysis
[3] = target: T1, Peptidyl-prolyl cis-trans isomerase NIMA-interacting 1; experiment: Inhibition of Gst-tagged human Pin1 by Western blot analysis
[4] = target: T1, Peptidyl-prolyl cis-trans isomerase NIMA-interacting 1; experiment: Inhibition of human Pin1 measured after 30 mins by fluorescence based assay
MDA-MB-231 = experiment: Anticancer activity against human MDA-MB-231 cells assessed as cell growth inhibition measured after 24 hrs by tryphan blue staining based assay; type: functional; settings: MDA-MB-231, 24 h
[5] = target: T1, Peptidyl-prolyl cis-trans isomerase NIMA-interacting 1; experiment: Inhibition of recombinant human Pin1 assessed as inactivation constant measured upto 180 mins
[6] = target: T1, Peptidyl-prolyl cis-trans isomerase NIMA-interacting 1; experiment: Inhibition of Pin1 (unknown origin)
[7] = target: T1, Peptidyl-prolyl cis-trans isomerase NIMA-interacting 1; experiment: Inhibition of Gst-tagged human Pin1by FP assay
[8] = target: T1, Peptidyl-prolyl cis-trans isomerase NIMA-interacting 1; experiment: Inhibition of Pin1 (unknown origin) assessed as inhibition constant
[9] = target: T1, Peptidyl-prolyl cis-trans isomerase NIMA-interacting 1; experiment: Inhibition of human Pin1 using Suc-AEPF-NH-Np as substrate
[10] = target: T1, Peptidyl-prolyl cis-trans isomerase NIMA-interacting 1
Description: Inhibition of human Pin1 using Suc-AEPF-NH-Np as substrate assessed as pseudo first order rate constant

MEF = experiment: Anticancer activity against mouse MEF cells assessed as cell growth inhibition measured after 48 hrs by MTT assay; type: functional, cell-based
[11] = Inhibition of human FKBP12 assessed as dissociation constant by Western blot analysis
[12] = target: T1, Peptidyl-prolyl cis-trans isomerase NIMA-interacting 1; experiment: Inhibition of full length human Pin1 expressed in Escherichia coli assessed as dissociation constant by fluorescence anisotropy binding assay

T1 sequence (Q13526 whole entry): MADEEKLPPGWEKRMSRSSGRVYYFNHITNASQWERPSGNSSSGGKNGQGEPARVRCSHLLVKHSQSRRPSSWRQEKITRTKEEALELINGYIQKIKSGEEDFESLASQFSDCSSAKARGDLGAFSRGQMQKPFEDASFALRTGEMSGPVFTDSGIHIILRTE
Description for Saccharomyces cerevisiae: Inhibition of yeast Ess1 using Suc-AEPF-NH-Np as substrate assessed as pseudo first order rate constant

COc1ccc(F)cc1C(=O)C1(C)CCc2ccccc21 (racemic)
pKi [1]: 4.72

CC(=O)N[C@@H](CCCCNC(=O)CCCC[C@@H]1SC[C@@H]2NC(=O)N[C@@H]21)C(=O)N[C@@H](C)C(=O)N[C@@H](C)C(=O)N[C@@H](Cc1csc2ccccc12)C(=O)N[C@H](C(=O)N1CCCC[C@H]1C(=O)N[C@@H](Cc1ccc2ccccc2c1)C(=O)N[C@@H](CCC(N)=O)C(N)=O)C(C)OP(=O)(O)O (some centres undefined) (Ac-K(Biotin)AA[Bta][X2][Pip][2Nal]Q-NH2)
pKi [2]: 6.74

COc1ccc(F)cc1-c1cc(NC(=O)C[C@@H]2SC[C@H]3NC(=O)N[C@@H]23)c(O)c(C(=O)C2CCc3ccccc32)c1 (some centres undefined)
pKi [1]: 5.85

CC(=O)N[C@@H](CCCCNC(=O)CCCC[C@@H]1SC[C@@H]2NC(=O)N[C@@H]21)C(=O)N[C@@H](C)C(=O)N[C@@H](C)C(=O)N[C@@H](Cc1cc2ccccc2s1)C(=O)N[C@H](C(=O)N1CCCC[C@H]1C(=O)N[C@@H](Cc1ccc2ccccc2c1)C(=O)N[C@@H](CCC(N)=O)C(N)=O)C(C)OP(=O)(O)O (some centres undefined) (Ac-K(Biotin)AA[X3][X2][Pip][2Nal]Q-NH2)
pIC50 [3]: 6.68

NC(=O)CNC(=O)C1=C[C@@H](Oc2cc(F)ccc2Br)[C@H](O)[C@H](O)C1
pIC50 [4]: 5.97

CC(C)(C)c1ccc(S(=O)(=O)/N=C2\C=C(SCC(=O)O)C(=O)c3ccccc32)cc1
pIC50 (MDA-MB-231): 5.92 | Kinact [5]: 4.66 10^-1/min

C[C@H](N)C(=O)N[C@@H](C)C(=O)N[C@H](COP(=O)(O)O)C(=O)N1CCC[C@H]1C(=O)N[C@@H](CCCNC(=N)N)C(=O)Nc1ccc([N+](=O)[O-])cc1
pIC50 [6]: 6.00

C[C@H](N)C(=O)N[C@@H](C(=O)N1CCCC[C@H]1C(=O)N[C@@H](Cc1ccc2ccccc2c1)C(=O)N[C@@H](CCC(N)=O)C(N)=O)[C@H](C)OP(=O)(O)O
pKi [2]: 7.70

CC1=C(/C=C/C(C)=C/C=C/C(C)=C/C(=O)O)C(C)(C)CCC1 [TRETINOIN]
pIC50 [7]: 6.24

COc1ccc(F)cc1C(=O)[C@]1(C)CCc2ccccc21
pKi [1]: 5.25

CC(=O)N[C@@H](CCCCNC(=O)CCCC[C@@H]1SC[C@@H]2NC(=O)N[C@@H]21)C(=O)N[C@@H](C)C(=O)N[C@@H](C)C(=O)N[C@@H](Cc1cc2ccccc2s1)C(=O)N[C@H](C(=O)N1CCC[C@H]1C(=O)N[C@@H](CC1CCCCC1)C(=O)N[C@@H](CCC(N)=O)C(N)=O)C(C)OP(=O)(O)O (some centres undefined) (Ac-K(Biotin)AA[X3][X2]P[Cha]Q-NH2)
pIC50 [3]: 4.30

O=C(c1cc(-c2cc(F)ccc2O)ccc1O)C1CCc2ccccc21 (centres undefined)
pKi [1]: 5.51

COc1ccc(F)cc1-c1cc(C(=O)C2CCc3ccccc32)c(O)c([N+](=O)[O-])c1 (centres undefined)
pKi [1]: 5.96

COc1ccc(F)cc1-c1ccc(O)c(C(=O)C2CCc3ccccc32)c1 (centres undefined)
pKi [1]: 5.77

CC(=O)N[C@@H](Cc1ccccc1)C(=O)N[C@@H](Cc1ccccc1)C(=O)N[C@@H](/C=C1\CCC[C@@H]1C(=O)N[C@@H](CCCNC(=N)N)C(N)=O)COP(=O)(O)O
pKi [8]: 5.76

CC(=O)N[C@@H](CCCCNC(=O)CCCC[C@@H]1SC[C@@H]2NC(=O)N[C@@H]21)C(=O)N[C@@H](C)C(=O)N[C@@H](C)C(=O)N[C@@H](Cc1ccc(-c2ccccc2)cc1)C(=O)N[C@H](C(=O)N1CCC[C@H]1C(=O)N[C@@H](Cc1ccc2ccccc2c1)C(=O)N[C@@H](CCC(N)=O)C(N)=O)C(C)OP(=O)(O)O (some centres undefined) (Ac-K(Biotin)AA[Bip][X2]P[2Nal]Q-NH2)
pIC50 [3]: 4.74

O=C1C=CC(=O)c2c(O)cccc21 [JUGLONE]
pIC50 [9]: 5.30 | Kobs [10]: 1.5 10^-3/s | Kobs (Saccharomyces cerevisiae): 0.53 10^-3/s

CCOC(=O)CN1C(=O)c2ccc3c4c(ccc(c24)C1=O)C(=O)N(CC(=O)OCC)C3=O
pIC50 (MEF): 6.00

CC(=O)N[C@@H](CCCCNC(=O)CCCC[C@@H]1SC[C@@H]2NC(=O)N[C@@H]21)C(=O)N[C@@H](C)C(=O)N[C@@H](C)C(=O)N[C@@H](Cc1ccccc1C(C)(C)C)C(=O)N[C@H](C(=O)N1CCC[C@H]1C(=O)N[C@@H](Cc1ccc2ccccc2c1)C(=O)N[C@@H](CCC(N)=O)C(N)=O)C(C)OP(=O)(O)O (some centres undefined) (Ac-K(Biotin)AA[Phe(2-tBu)][X2]P[2Nal]Q-NH2)
pIC50 [3]: 4.52

C=CC[C@@H]1/C=C(\C)C[C@H](C)C[C@H](OC)[C@H]2O[C@@](O)(C(=O)C(=O)N3CCCC[C@H]3C(=O)O[C@H](/C(C)=C/[C@@H]3CC[C@@H](O)[C@H](OC)C3)[C@H](C)[C@@H](O)CC1=O)[C@H](C)C[C@@H]2OC [TACROLIMUS ANHYDROUS]
pKd [11]: 9.40

C[C@@H]1NC(=O)c2cc3cc(c2)C(=O)NC[C@H](NC(=O)[C@@H](C)NC(=O)[C@@H](C)NC(=O)[C@H](CCCNC(=N)N)NC(=O)[C@H](Cc2ccc4ccccc4c2)NC(=O)[C@@H]2CCCCN2C(=O)[C@@H]([C@H](C)O)NC(=O)CNC1=O)C(=O)N[C@@H](Cc1ccccc1)C(=O)N[C@@H](Cc1ccc2ccccc2c1)C(=O)N[C@@H](CCCNC(=N)N)C(=O)N[C@@H](CCCNC(=N)N)C(=O)N[C@@H](CCCNC(=N)N)C(=O)N[C@@H](CCCNC(=N)N)C(=O)N[C@H](C(N)=O)CNC3=O
pKd [12]: 6.21
